Reference: patent publication US20250127907A1, “PARP INHIBITORS” (Stablix, Inc., priority 2023, published 2025)
Like-named read-outs stand apart in the source and are kept apart here.

How the values were obtained:
[1] = system: Poly/Mono-ADP Ribose in U2OS cells; experiment: PAR in cell western assay (parylation) in U2OS cells; assay type: cell-based; conditions: read-out: Parylation (U2OS)
Method: U2OS cells are seeded at 2667 cells per well in 24 ul medium into poly-D lysine-coated 384 well plate and incubated in the TC incubator for O/N
The next day, test comps are diluted in a source plate and 6 μL of the diluted comp is added to the cell plate; mixed well and incubated for 6 hrs. DNA damage is induced with 2 mM H2O2 for 10 min. After discarding the medium, cells are fixed in ice cold Methanol at for 20 min at −20C. After a wash step at room temperature, cells are permeabilized with 0.05% NP-40 in PBS for 10 min, followed by wash steps. Cells are blocked with 1% BSA, at room temperature for 1 hr. Cells are stained with anti mono/polyADP ribose antibody (E6F6A, Cell signaling, 1:5000) in 1×PBS/1% BSA/0.05% Tween o/n at 4C.
Next Day, cells are washed and incubated with anti-Rabbit 800CV (Licor antibody, 1:500) and CellTag 700 (Licor, 1:800) in 1×PBS/1% BSA/0.05% Tween for 1 h. After washing, plates are scanned using LICOR and are quantified.
Parylation inhibition is reported as % control inhibition.
(§1) The letter codes for the PARP1-enzyme assay include: A (<1 nM), B (>1-10 nM), C (>10-100 nM), D (>100-1000 nM), E (>1000 nM), and “-” is not tested. The letter codes for the PARP trapping assay, and parylation assay include: A (<10 nM), B (>10-100 nM), C (>100-1000 nM), […], E (>10000 nM), and “-” is not tested.

A2780 cells = experiment: Cell proliferation assay (A2780); assay type: cell-based; conditions: 7 days
Method: (§2) Cells are counted, diluted to desired density and 40 μL of cell suspension is added into each 384-well tissue-culture treated plates. Plates are incubated in Tissue Culture incubator at 37° C./5% C02 overnight.
(§3) Next day, 40 nl test compounds that are prepared from source plates are transferred to the seeded cells from overnight. Plates are incubated at 37° C./5% C02 for a total of 7 days. After 7-day incubation, plates are equilibrated to room temperature and 30 ul of Cell Counting-Lite is added to each well for a 30 min incubation followed by reading on EnVision.
(§4) The letter codes for the cell proliferation assay in A2780, HCC1806, and MDA-MB-436 cells include: A (<10 nM), B (>10-100 nM), C (>100-1000 nM), D (>1000-10000 nM), E (>10000 nM), and “-” is not tested.

PARP1 [2] = biological target: T1, PARP1 (Homo sapiens, UniProt P09874); experiment: PARP trapping assay in U2OS cells; assay type: cell-based; set-up: endogenous in cells; host or cells: U2OS
Method: U2OS cells are seeded at 15,000 cells/well in 90 ul medium and incubated in the TC incubator for overnight.
Next day, test compounds are prepared in a source plate along with addition of DNA damage reagent MMS simultaneously and 10 ul of the diluted mixture is added to the cell plate and incubated for 4 hrs under T/C conditions.
After 4 hrs, following aspiration and washing, add 100 ul of cold cytoskeleton removal buffer (0.5% Triton X-100) and incubated for 10 min. At the end of incubation, slowly the buffer is removed, and cells are fixed with ice cold MeOH for 15 min at −20C. Followed by wash steps, cells are blocked with 1×PBS/3% BSA/0.05% Tween for 1 h at room temperature.
Cells are stained with anti PARP1 antibody (abeam ab227244, 1:1000), in 1×PBS/1% BSA overnight at 4C.
Wash and add DAPI, scan cells in Celigo.
Data Analysis: DAPI staining is used to segment nuclei and AF488 fluorescence intensity per nucleus is measured.
as §1
Target sequence in this assay (P09874 whole entry): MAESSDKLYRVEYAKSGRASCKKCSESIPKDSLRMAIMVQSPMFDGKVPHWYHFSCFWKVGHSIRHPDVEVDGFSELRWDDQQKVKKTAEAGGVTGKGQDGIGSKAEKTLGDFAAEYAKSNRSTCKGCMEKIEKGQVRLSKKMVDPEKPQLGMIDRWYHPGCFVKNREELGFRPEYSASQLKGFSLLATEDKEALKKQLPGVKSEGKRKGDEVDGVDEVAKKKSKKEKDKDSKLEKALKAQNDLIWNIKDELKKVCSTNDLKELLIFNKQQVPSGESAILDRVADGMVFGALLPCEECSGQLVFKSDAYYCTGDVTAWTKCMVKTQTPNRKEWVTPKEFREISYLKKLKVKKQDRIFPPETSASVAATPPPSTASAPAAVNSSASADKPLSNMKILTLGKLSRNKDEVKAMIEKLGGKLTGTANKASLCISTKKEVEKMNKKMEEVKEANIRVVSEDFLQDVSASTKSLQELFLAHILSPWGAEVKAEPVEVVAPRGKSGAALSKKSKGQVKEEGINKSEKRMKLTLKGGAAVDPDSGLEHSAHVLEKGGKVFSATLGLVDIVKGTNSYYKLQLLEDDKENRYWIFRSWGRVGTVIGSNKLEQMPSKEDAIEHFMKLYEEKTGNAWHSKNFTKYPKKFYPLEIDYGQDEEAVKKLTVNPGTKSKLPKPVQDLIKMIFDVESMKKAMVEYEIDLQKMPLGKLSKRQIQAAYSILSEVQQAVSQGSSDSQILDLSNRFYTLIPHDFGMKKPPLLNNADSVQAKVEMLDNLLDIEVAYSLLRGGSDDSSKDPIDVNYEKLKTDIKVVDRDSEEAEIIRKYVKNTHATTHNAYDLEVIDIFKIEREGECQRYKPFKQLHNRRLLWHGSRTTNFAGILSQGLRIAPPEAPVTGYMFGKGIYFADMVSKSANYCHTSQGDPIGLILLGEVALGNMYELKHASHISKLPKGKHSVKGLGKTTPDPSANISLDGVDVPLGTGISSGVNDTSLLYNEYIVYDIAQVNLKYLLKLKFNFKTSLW

PARP1 [3] = biological target: T1, PARP1; experiment: PARP1-enzyme assay (NAD/NADH-Glo biochemical assay); conditions: recombinant PARP1, NAD+ consumption
Method: The PARP enzyme catalyzes the transfer of ADP-Ribose from NAD+ onto PAR chains/histone substrates. The catalytic cycle is monitored indirectly with the NAD/NADH-Glo Assay kit from Promega. […] NAD+ consumed is determined by comparison to the no enzyme control.
• Recombinant PARP1 • NAD+/NAHD-Glow assay Kit • Activated DNA, 10 μg/mL • NAD+(Nicotinamide Adenine Dinucleotide), 500 nM • Protein substrate for PARP1: Core Histone from chicken, 10 μg/mL
as §1
Target sequence in this assay (P09874 whole entry, species assumed): as the sequence (P09874 whole entry) above

MDA-MB-436 cells = experiment: Cell proliferation assay (MDA-MB-436); assay type: cell-based; conditions: 7 days
Method: as §2, §3, §4

[4] = Homo sapiens, U2OS cells, 6 hrs, 2 mM H2O2
[5] = U2OS cells, MMS, 4 hrs, read-out: PARP Trapping (U2OS)

SMILES	IC50 [1, 4]	IC50 (A2780 cells; Homo sapiens, 168 h)	IC50 (PARP1 [2]; [5])	IC50 (PARP1 [3])	IC50 (MDA-MB-436 cells; Homo sapiens, 168 h)	IC50 ([1]; U2OS cells, 6 hrs, 2 mM H2O2)	IC50 (A2780 cells)	IC50 (MDA-MB-436 cells)	IC50 ([1]; Homo sapiens, U2OS, 6 h)	IC50 (PARP1 [2])
CCc1cccc(-c2cnc(C(=O)NCCCCCNCC(=O)N3CCN(C(=O)c4cc(Cc5n[nH]c(=O)c6ccccc56)ccc4F)CC3)c(NC(=O)CNCc3cccc(C)c3)c2)c1 [Compound I-64]	100 to 1000 nM	100 to 1000 nM	100 to 1000 nM	< 1 nM	10 to 100 nM	–	–	–	–	–
CCOc1cc(OC)ccc1CNCC(=O)N1CCC[C@H](c2cccc(C(=O)N[C@@H](C(=O)N3CCC(CN4CCN(CC(=O)N5CCN(C(=O)c6cc(Cc7n[nH]c(=O)c8ccccc78)ccc6F)CC5)CC4)CC3)C3CCCCC3)c2)C1 [Compound I-168]	–	–	10 to 100 nM	< 1 nM	–	100 to 1000 nM	10 to 100 nM	< 10 nM	–	–
O=C(N[C@@H](C(=O)N1CCN(CC2CCN(CC(=O)N3CCN(C(=O)c4cc(Cc5n[nH]c(=O)c6ccccc56)ccc4F)CC3)CC2)CC1)C1CCCCC1)c1cccc(C2CCCN(C(=O)CNCc3ccc(F)cc3F)C2)c1 (stereo partly drawn) [Compound I-184]	100 to 1000 nM	100 to 1000 nM	100 to 1000 nM	< 1 nM	10 to 100 nM	–	–	–	–	–
O=C(N[C@@H](C(=O)N1CCN(CC2CCN(CC(=O)N3CCN(C(=O)c4cc(Cc5n[nH]c(=O)c6ccccc56)ccc4F)CC3)CC2)CC1)C1CCCCC1)c1cccc([C@H]2CCCN(C(=O)CNCc3ccc(F)cc3F)C2)c1 [Compound I-294]	10 to 100 nM	100 to 1000 nM	100 to 1000 nM	1 to 10 nM	10 to 100 nM	–	–	–	–	–
O=C(N[C@@H](C(=O)N1CCN(CC2CCN(CC(=O)N3CCN(C(=O)c4cc(Cc5n[nH]c(=O)c6ccccc56)ccc4F)CC3)CC2)CC1)C1CCCCC1)c1cc(C2CCCN(C(=O)CNC3CC3)C2)ccc1F (stereo partly drawn) [Compound I-323]	–	100 to 1000 nM	–	< 1 nM	< 10 nM	–	–	–	100 to 1000 nM	100 to 1000 nM
CCc1cccc(-c2cnc(C(=O)N3CCC(CN4CCN(CC(=O)N5CCN(C(=O)c6cc(Cc7n[nH]c(=O)c8ccccc78)ccc6F)CC5)CC4)CC3)c(NC(=O)CNCc3ccc(F)cc3F)c2)c1 [Compound I-331]	10 to 100 nM	10 to 100 nM	100 to 1000 nM	< 1 nM	10 to 100 nM	–	–	–	–	–

Further lines, with some results ahead:

IC50 [1, 4]	IC50 (A2780 cells; Homo sapiens, 168 h)	IC50 (PARP1 [2]; [5])	IC50 (PARP1 [3])	IC50 (MDA-MB-436 cells; Homo sapiens, 168 h)	IC50 ([1]; U2OS cells, 6 hrs, 2 mM H2O2)	IC50 (A2780 cells)	IC50 (MDA-MB-436 cells)	SMILES	IC50 ([1]; Homo sapiens, U2OS, 6 h)	IC50 (PARP1 [2])
100 to 1000 nM	100 to 1000 nM	10 to 100 nM	< 1 nM	10 to 100 nM	–	–	–	CCc1cccc(-c2cnc(C(=O)N3CCC(CN4CCN(CC(=O)N5CCN(C(=O)c6cc(Cc7n[nH]c(=O)c8ccccc78)ccc6F)CC5)CC4)CC3)c(NC(=O)CNCc3cccc(C)c3)c2)c1 [Compound I-61]	–	–
100 to 1000 nM	100 to 1000 nM	100 to 1000 nM	< 1 nM	10 to 100 nM	–	–	–	O=C(N[C@@H](C(=O)N1CCN(CC2CCN(CC(=O)N3CCN(C(=O)c4cc(Cc5n[nH]c(=O)c6ccccc56)ccc4F)CC3)CC2)CC1)C1CCCCC1)c1cccc(C2CCCN(C(=O)CNC3CC3)C2)c1 (stereo partly drawn) [Compound I-183]	–	–
100 to 1000 nM	1000 to 10000 nM	100 to 1000 nM	< 1 nM	10 to 100 nM	–	–	–	CCc1cccc(-c2cnc(C(=O)N3CCN(CC4CCN(CC(=O)N5CCN(C(=O)c6cc(Cc7n[nH]c(=O)c8ccccc78)ccc6F)CC5)CC4)CC3)c(NC(=O)CNCc3ccncn3)c2)c1 [Compound I-238]	–	–
